Results taken from ChEMBL document CHEMBL1151344, “Potential anticancer agents. XVI. Isolation of bicyclofarnesane sesquiterpenoids from Capsicodendron dinisii” (1980).
In brackets after ≈: the same amount, converted by molar mass. Activity calls are given as the source filed them. The calls are words filed in the database; no cut-off is given here.

Tests used:
P388 [1] = assay: In vivo cytotoxicity against mouse P388 cells; type: functional, organism-based
P388 [2] = assay: Cytotoxicity against mouse P388 cells; type: functional
9KB = assay: Cytotoxicity against human 9KB cells; type: functional, cell-based
[3] = Cytotoxicity against human 9KB5 cells; type: functional; conditions: read-out: ED50 (the source's name)

Structure (SMILES): CC(=O)O[C@@H]1CC2=C(C(=O)OC2)[C@@]2(C)CCCC(C)(C)[C@H]12
- Activity (P388 [1]): inactive
- Activity (P388 [2]): inactive
- Activity (9KB): inactive

Structure (SMILES): CC1(C)CCC[C@]2(C)C3=C(COC3=O)[C@H](O)C[C@@H]12
- Activity (P388 [1]): inactive
- Activity (P388 [2]): inactive
- Activity (9KB): inactive

Structure (SMILES): CC(=O)O[C@@H]1C=C2C(=O)OC[C@]2(O)[C@@]2(C)CCCC(C)(C)[C@H]12 [CINNAMOSMOLIDE]
- Activity (P388 [1]): inactive
- EC50 [3]: 1.2 µg/mL (≈ 3.89 µM)
- Activity (P388 [2]): inactive

Structure (SMILES): CC(=O)O[C@@H]1[C@@H](O)C2=C(C(=O)OC2)[C@@]2(C)CCCC(C)(C)[C@H]12
- Activity (P388 [1]): inactive
- Activity (P388 [2]): inactive
- Activity (9KB): inactive

Structure (SMILES): CC(=O)O[C@@H]1C=C(C=O)[C@](O)(C=O)[C@@]2(C)CCCC(C)(C)[C@H]12 [CINNAMODIAL]
- Activity (P388 [1]): inactive
- EC50 (P388 [2]; read-out: ED50 (the source's name)): 2.2 µg/mL (≈ 7.13 µM)
